Data reported in ChEMBL document CHEMBL4831488, “Design, synthesis, docking, molecular dynamics and bioevaluation studies on novel N-methylpicolinamide and thienopyrimidine derivatives with inhibiting NF-κB and TAK1 activities: Cheminformatics tools RDKit applied in drug design” (Eur J Med Chem, 2021).
pIC50: −log10 of the molar value.

How the values were obtained:
[1] = test system: A549; test: Cytotoxicity against human A549 cells assessed as inhibition of cell growth measured after 72 hrs by MTT assay; assay type: functional, cell-based; details: for pIC50: Homo sapiens, A549, 72 h, read-out: IC50; for IC50: a549
[2] = test system: HCT-116; test: Cytotoxicity against human HCT-116 cells assessed as inhibition of cell growth at 20 uM measured after 72 hrs by MTT assay relative to control; assay type: functional
[3] = test system: A549; test: Cytotoxicity against human A549 cells assessed as inhibition of cell growth at 20 uM measured after 72 hrs by MTT assay relative to control; assay type: functional
[4] = test system: MDA-MB-231; test: Cytotoxicity against human MDA-MB-231 cells assessed as inhibition of cell growth at 20 uM measured after 72 hrs by MTT assay relative to control; assay type: functional
[5] = test system: MAP3K7/TAB1 [+]; test: Inhibition of Tak1/Tab1 (unknown origin) assessed as inhibition of Tak1 kinase activity preincubated for 30 mins followed by addition of MBP protein and ATP and measured after 2 hrs by ADP-Glo kinase assay
[6] = target: TAK1-TAB1 fusion protein (Homo sapiens, UniProt O43318); test: Inhibition of Tak1/Tab1 (unknown origin) assessed as inhibition of Tak1 kinase activity preincubated for 30 mins followed by addition of MBP protein and ATP and measured after 2 hrs by ADP-Glo kinase assay
Sequence of TAK1-TAB1 fusion protein (O43318 whole entry, looked up, the tested form may be a part): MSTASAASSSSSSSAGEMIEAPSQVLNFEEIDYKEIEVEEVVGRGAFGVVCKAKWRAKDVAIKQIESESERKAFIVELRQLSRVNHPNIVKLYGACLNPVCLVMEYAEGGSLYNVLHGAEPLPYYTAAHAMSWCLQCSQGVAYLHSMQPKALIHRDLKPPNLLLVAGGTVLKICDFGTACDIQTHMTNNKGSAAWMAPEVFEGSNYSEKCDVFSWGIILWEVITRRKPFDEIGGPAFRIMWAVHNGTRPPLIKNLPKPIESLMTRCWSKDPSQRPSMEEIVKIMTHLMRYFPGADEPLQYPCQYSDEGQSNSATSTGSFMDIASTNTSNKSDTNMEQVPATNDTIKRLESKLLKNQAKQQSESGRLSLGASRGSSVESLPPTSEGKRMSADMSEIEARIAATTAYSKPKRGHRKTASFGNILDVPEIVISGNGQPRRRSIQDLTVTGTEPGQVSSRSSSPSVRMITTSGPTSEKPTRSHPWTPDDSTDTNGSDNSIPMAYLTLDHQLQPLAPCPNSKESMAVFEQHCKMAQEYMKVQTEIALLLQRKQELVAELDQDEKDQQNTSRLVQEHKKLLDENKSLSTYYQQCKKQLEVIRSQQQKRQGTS

[7] = test system: HCT-116; test: Cytotoxicity against human HCT-116 cells assessed as inhibition of cell growth measured after 72 hrs by MTT assay; assay type: functional, cell-based; details: HCT-116, 72 h

SMILES | pIC50 [1] | inhibition at 20 µM [2] | inhibition at 20 µM [3] | inhibition at 20 µM [4] | IC50 [1] | IC50 [5] | pIC50 [6] | pIC50 [7]
c1cc(N2CCOCC2)nc(Nc2ccc(Oc3ncnc4sccc34)cc2)n1 | 5.03 | 37.5% | 36.7% | 14.5% | – | – | – | –
c1ccc(CNc2ccc(Oc3ncnc4ccsc34)cc2)cc1 | – | -12.2% | 30.6% | 3.72% | Not Active | – | – | –
CN(c1ccc(Oc2ncnc3sccc23)cc1)c1nccc(N2CCCCC2)n1 | 5.06 | 52.1% | 51.9% | 29.3% | – | – | – | –
c1cc(N2CCCCC2)nc(Nc2ccc(Oc3ncnc4ccsc34)cc2)n1 | 5.11 | 61.5% | 59.9% | 45.7% | – | – | – | –
CN(c1ccc(Oc2ncnc3ccsc23)cc1)c1nccc(N2CCCC2)n1 | 5.19 | 63.5% | 63.9% | 38% | – | Not Active | – | –
c1ccc2c(c1)CCN(c1ccnc(Nc3ccc(Oc4ncnc5sccc45)cc3)n1)C2 | 5.17 | 18.1% | 34% | 26.8% | – | – | 5.16 | –
CNC(=O)c1cc(Oc2ccc(Nc3nccc(N4CCOCC4)n3)cc2)ccn1 | 5.13 | 48.3% | 66.3% | 34.1% | – | – | – | 4.89
CN(c1ccc(Oc2ncnc3sccc23)cc1)c1nccc(N2CCCC2)n1 | 4.82 | 42.2% | 55.5% | 31% | – | – | – | –
CN(c1ccc(Oc2ncnc3ccsc23)cc1)c1nccc(N2CCc3ccccc3C2)n1 | 4.79 | 58.3% | 69.9% | 30.2% | – | – | – | –
CCN(CC)c1ccc(C(=O)Nc2ccc(Oc3ncnc4ccsc34)cc2)cc1 | 5.10 | 37.9% | 63.8% | 38.3% | – | – | – | –
CN(C)c1ccc(C(=O)Nc2ccc(Oc3ncnc4ccsc34)cc2)cc1 | 4.69 | 53.9% | 50.8% | 10.4% | – | – | – | –
CN(c1ccc(Oc2ncnc3sccc23)cc1)c1nccc(N2CCc3ccccc32)n1 | 4.71 | 20% | 29.4% | 17.6% | – | – | – | –
CN(c1ccc(Oc2ncnc3ccsc23)cc1)c1nccc(N2CCc3ccccc32)n1 | 4.69 | 57.8% | 58.2% | 38.2% | – | – | – | –
c1cc(N2CCOCC2)nc(Nc2ccc(Oc3ncnc4ccsc34)cc2)n1 | 5.16 | 53.1% | 57.9% | 23% | – | – | 4.80 | –
c1cc(N2CCCCC2)nc(Nc2ccc(Oc3ncnc4sccc34)cc2)n1 | 5.40 | 66.3% | 64.8% | 40.4% | – | – | 5.60 | –
c1cc(N2CCCC2)nc(Nc2ccc(Oc3ncnc4sccc34)cc2)n1 | 5.09 | 54.4% | 61% | 24.7% | – | – | – | –
CNC(=O)c1cc(Oc2ccc(Nc3nccc(N4CCc5ccccc5C4)n3)cc2)ccn1 | 5.50 | 31.2% | 59.6% | 41.2% | – | – | 5.90 | 4.80
c1cc(N2CCCC2)nc(Nc2ccc(Oc3ncnc4ccsc34)cc2)n1 | – | 22.2% | 23.2% | 14.3% | Not Active | – | – | –
c1ccc2c(c1)CCN2c1ccnc(Nc2ccc(Oc3ncnc4sccc34)cc2)n1 | – | -0.62% | 2.81% | 9.95% | Not Active | – | – | –
c1ccc2c(c1)CCN(c1ccnc(Nc3ccc(Oc4ncnc5ccsc45)cc3)n1)C2 | 4.77 | 40.9% | 54.9% | 15.4% | – | – | – | –
CNC(=O)c1cc(Oc2ccc(Nc3nccc(N4CCCC4)n3)cc2)ccn1 | 5.47 | 66.4% | 59.6% | 46.6% | – | – | 5.87 | 5.85
CN(c1ccc(Oc2ncnc3ccsc23)cc1)c1nccc(N2CCCCC2)n1 | 5.08 | 66.2% | 65.7% | 49.7% | – | – | – | –
CN(c1ccc(Oc2ncnc3sccc23)cc1)c1nccc(N2CCc3ccccc3C2)n1 | 5.19 | 57.7% | 68.4% | 24.3% | – | – | 4.92 | –
